# Measurements taken from patent US6420570B1, “Psoralen compounds” (priority 1993, dated 2002).
# Where a name gives a salt, the structure may show the parent alone.
# System: TA98
# Assay: Ames assay, dark mutagenicity, strain TA98
# Procedure: In this example the compounds of the present invention are tested for their dark mutagenicity using an Ames assay. The procedures used for the Salmonella mutagenicity test as described in detail by Maron and Ames were followed exactly. Maron, D. M. and B. N. Ames, Mutation Research 113:173 (1983). A brief description for each procedure is given here. The tester strains TA97a, TA98, TA100, TA102, TA1537 and TA1538 were obtained from Dr. Ames. TA97a, TA98, TA1537 and TA1538 are frameshift tester strains. TA100 and TA102 are base-substitution tester strains. Upon receipt each strain was cultured under a variety of conditions to confirm the genotypes specific to the strains.
# The first tests done with the strains were to determine the range of spontaneous reversion for each of the strains. With each mutagenicity experiment the spontaneous reversion of the tester strains to histidine independence was measured and expressed as the number of spontaneous revertants per plate. This served as the background controls.
# For all experiments, the pre-incubation procedure was used. In this procedure one vial of each tester strain was thawed and 20 μL of this culture was added to 6 mL of Oxoid Nutrient Broth #2. This solution was allowed to shake for 10 hours at 37° C. In the pre-incubation procedure, 0.1 mL of this overnight culture was added to each of the required number of sterile test tubes. To half of the tubes 0.5 mL of a 10% S-9 solution containing Aroclor 1254 induced rat liver extract (Molecular Toxicology Inc., Annapolis, MD), and MgCl2, KCl, glucose-6-phosphate, NADP, and sodium phosphate buffer (Sigma, St. Louis. Mo.) were added. To the other half of the tubes 0.5 mL of 0.2M sodium phospate buffer, pH 7.4, was used in place of the S-9 mixture (the -S9 samples) Finally 0.1 mL of the test solution containing either 0.0.1, 0.5, 1, 5, 10, 50, 100, 250, or 500 μg/mL of the test compound was added. The 0.7 mL mixture pre-incubated while shaking for 20 minutes at 37° C. After shaking, 2 mL of molten top agar supplemented with histidine and biotin were added to the 0.7 mL mixture and immediately poured onto a minimal glucose agar plate (volume of base agar was 20 ml.). The top agar was allowed 30 minutes to solidify and then the plates were inverted and incubated for 44 hours at 37° C. After incubation the number of revertant colonies on each plate were counted. […] (“n” represents the number of replicates performed for each data point.)
# Maron and Ames (1983) describe the conflicting views with regard to the statistical treatment of data generated from the test.
compound,measurement,setting,value
"Cc1oc2c(C)c3oc(=O)cc(C)c3cc2c1CNCCCCN [Compound 6, 4′-(6-Aminohexyl-2-aza)-4,5′,8-trimethylpsoralen Dihydrochloride]",revertant colonies per plate,"TA98 +S9, 10 μg/plate",−5
same,revertant colonies per plate,"TA98 +S9, 250 μg/plate",40
same,revertant colonies per plate,"TA98 +S9, 500 μg/plate",52
same,revertant colonies per plate,"TA98 −S9, 10 μg/plate",12
same,revertant colonies per plate,"TA98 −S9, 50 μg/plate",12
same,revertant colonies per plate,"TA98 −S9, 100 μg/plate",22
same,revertant colonies per plate,"TA98 −S9, 250 μg/plate",12
same,revertant colonies per plate,"TA98 −S9, 500 μg/plate",9
